Test results taken from patent US20180016289A1, “REDOX-SENSITIVE VESICLES” (THE ROYAL INSTITUTION FOR THE ADVANCEMENT OF …, priority 2015, published 2018).

Test: Cyclic voltammetry (CV) in acetonitrile
Assay type: physicochemical
Details: 0.1 M TBA-PF6, glassy carbon electrode, 50 mV.s^−1, Ag wire coated with AgCl reference, 1 mM
Experimental: FIG. 6: Cyclic voltammetry (CV) measurements conducted in acetonitrile using 0.1 M of TBA-PF6 as the electrolyte. All the measurements were conducted at a scan rate of 50 mV.s^−1 using a glassy carbon (Ø=3 mm) electrode as a working electrode, Pt wire as a counter electrode and Ag wire coated with AgCl as a reference electrode. (A) Voltammogram of a 1 mM ferroceneacetic acid solution (B) voltammogram of a 1 mM phospholipid 2 solution. (C) Voltammogram of a 1 mM phospholipid 3 solution.
FIG. 14: (A) Synthesis of Fc-DSP (3) from ferroceneacetic acid (1) and DSPE (2) using a detailed reaction and another graphical representation that are used in FIGS. 15-17 (B) CV measurements conducted in acetonitrile using 0.1 M of TBA-PF6 as the electrolyte. All measurements were conducted at a scan rate of 50 mV.s^−1 using a glassy carbon (Ø=3 mm) electrode as a working electrode, Pt wire as a counter electrode and Ag wire coated with AgCl as a reference electrode. (black) Voltammogram of a 1 mM phospholipid 2 solution. (red) Voltammogram of 1 mM phospholipid 3 solution.
Cyclic voltammetry (CV) and scanning electrochemical microscopy (SECM) measurements were performed with an HEKA Electrochemical Probe Scanner 3 or Probe Scanner 1 (HEKA Elektronik Dr. Schulze GmbH, Germany). […]

Substance: ferroceneacetic acid [compound 1]
- reversible oxidation reduction of the ferrocene (potential): 0.42 V
